Patent US8431169B2, “Nutraceutical composition and methods of use” (Dacy Tech Pty Ltd, priority 2007, dated 2013)

Tests used:
[1] = system: Normal Human Articular Chondrocytes (NHAC-knee); experiment: BrdU cell proliferation assay; assay type: cell-based
Description: Clonetics® Normal Human Articular Chondrocytes (NHAC-knee) obtained from Lonza Australia Pty Ltd, were grown in chondrocyte growth medium (CGM) supplemented with growth factors. NHACs were used at passage #3-4 for all experiments.
The following assays were carried out using the protocols as per kit instructions:
Each of the above fractions was then individually assayed again for viability/cytotoxicity, cell growth and proliferation, apoptosis/necrosis using the tests as previously mentioned.

aggrecan = aggrecan RNA expression in cartilage explants (real time RT-PCR); assay type: cell-based, pig; conditions: indosim 0.02 mg/mL
Description: Front legs of market weight pigs (5-7 months old, 200-250 lbs) were obtained from a local abattoir. Legs were chilled on crushed ice until dissection. Using aseptic technique, the intercarpal joint was opened and the cartilage surfaces exposed. A 4 mm dermal biopsy punch was used to take explants (˜0.5 mm thickness; 11-15 mg/explant) of healthy cartilage from the weight-bearing region of both articulating surfaces of the intercarpal joint. Cartilage pieces were washed 3 times in Dubelco's Modified Eagle Medium (DMEM) supplemented with NaHCO3. Two cartilage discs were placed into each well of 24-well tissue culture plates containing DMEM supplemented with amino acids, sodium selenite, manganese sulfate, NaHCO3 and ascorbic acid (TCM—tissue culture medium). Plates were incubated at 37° C., 7% CO2 in a humidified atmosphere for up to 144 h. Every 24 h media was completely aspirated into 1 mL microcentrifuge tubes and immediately replaced with control, conditioned and/or stimulated media (described below) before being returned to the incubator. The collected media was stored at −80° C. until analysis. Cartilage was harvested at the end of each experiment with one explant per well stained for cytotoxicity and the remaining cartilage immediately frozen at −80° C. […]
SEQsim was prepared as explained above. […] Media was analyzed for [PGE2], [GAG], and [NO]. […]

iNOS = iNOS expression in IL-1-stimulated cartilage explants; assay type: cell-based, pig; conditions: IL-1-stimulated explants
Description: Simulated digests were prepared using SEQ (0.85 g), BO [2.5 mL (0.85 g)] and indomethacin (0.074 g—a positive anti-inflammatory control). […]

[2] = system: IL-1 stimulated and unstimulated cartilage explants; experiment: GAG release into media by cartilage explants (1,9-DMB assay); assay type: cell-based, pig; conditions: indosim 0.02 mg/mL
Description: Front legs of market weight pigs (5-7 months old, 200-250 lbs) were obtained from a local abattoir. Legs were chilled on crushed ice until dissection. Using aseptic technique, the intercarpal joint was opened and the cartilage surfaces exposed. A 4 mm dermal biopsy punch was used to take explants ( 0.5 mm thickness; 11-15 mg/explant) of healthy cartilage from the weight-bearing region of both articulating surfaces of the intercarpal joint. Cartilage pieces were washed 3 times in Dubelco's Modified Eagle Medium (DMEM) supplemented with NaHCO3. Two cartilage discs were placed into each well of 24-well tissue culture plates containing DMEM supplemented with amino acids, sodium selenite, manganese sulfate, NaHCO3 and ascorbic acid (TCM-tissue culture medium). Plates were incubated at 37° C., 7% CO2 in a humidified atmosphere for up to 144 h. Every 24 h media was completely aspirated into 1 mL microcentrifuge tubes and immediately replaced with control, conditioned and/or stimulated media (described below) before being returned to the incubator. […] Media was analyzed for [PGE2], [GAG], and [NO]. […] Media GAG concentration was determined using a 1,9-DMB spectrophotometric assay (Chandrasekhar et al., 1987). […] Plates were incubated in the dark for 10 minutes, and absorbance was read on a Victor 3 microplate reader at 530 nm. Sample absorbance was compared to that of a chondroitin sulfate standard. […]

[3] = system: IL-1 stimulated and unstimulated cartilage explants; experiment: nitric oxide (nitrite) in media from cartilage explants; assay type: cell-based, pig; conditions: IL-1-stimulated explants; indosim
Description: Simulated digests were prepared using SEQ (0.85 g), BO [2.5 mL (0.85 g)] and indomethacin (0.074 g—a positive anti-inflammatory control). Each test substance was individually suspended in 35 mL of simulated gastric fluid (37 mM NaCl, 0.03N HCl, 3.2 mg/mL pepsin), and shaken at 37° C. for 2 h (Rininger et al., 2000). After this, solution acidity was neutralized by adding an equinormal volume of 2.2 N NaOH (1.15 mL). To this was added 36.15 mL of simulated intestinal fluid (Rininger et al., 2000−30 mM K2HPO4, 160 mM NaH2PO4; 20 mg/mL pancreatin; pH adjusted to 7.4) and the resultant mixture shaken in a 37° C. incubator for a further 2 h. A “blank” was prepared using identical methodology but without including any test substance.
The supernatant was decanted and centrifuged a second time at 3,000×g for 15 min at 4° C. […]
Synovial fluid [NO]: Nitrite (NO2^−), a stable oxidation product of NO, was analyzed by the Griess reaction (Fenton et al., 2002). […] Sulfanilamide (0.01 g/mL) and N-(1)-Napthylethylene diamine hydrochloride (1 mg/mL) dissolved in phosphoric acid (0.085 g/L) was added to all wells, and absorbance was read within 5 minutes on a Victor 3 microplate reader at 530 nm. Sample absorbance was compared to a sodium nitrite standard.

[4] = system: IL-1-stimulated and unstimulated cartilage explants; experiment: cell viability staining of cartilage explants (C-AM / EthD-1); assay type: cell-based, pig; conditions: indosim 0.02 mg/mL
Description: Front legs of market weight pigs (5-7 months old, 200-250 lbs) were obtained from a local abattoir. Legs were chilled on crushed ice until dissection. Using aseptic technique, the intercarpal joint was opened and the cartilage surfaces exposed. A 4 mm dermal biopsy punch was used to take explants ( 0.5 mm thickness; 11-15 mg/explant) of healthy cartilage from the weight-bearing region of both articulating surfaces of the intercarpal joint. Cartilage pieces were washed 3 times in Dubelco's Modified Eagle Medium (DMEM) supplemented with NaHCO3. Two cartilage discs were placed into each well of 24-well tissue culture plates containing DMEM supplemented with amino acids, sodium selenite, manganese sulfate, NaHCO3 and ascorbic acid (TCM-tissue culture medium). Plates were incubated at 37° C., 7% CO2 in a humidified atmosphere for up to 144 h. Every 24 h media was completely aspirated into 1 mL microcentrifuge tubes and immediately replaced with control, conditioned and/or stimulated media (described below) before being returned to the incubator. […] Media was analyzed for [PGE2], [GAG], and [NO]. […] Cell viability was determined using a commercially available viability staining kit (Invitrogen; Burlington ON) (Pearson et al., 2007). […] The plate was read from the bottom of each well using 10 horizontal steps, 3 vertical steps, and a 0.1 mm displacement.

CCCCCCCCC=CCCCCCCCC(=O)O [Fraction F1.4, 9-Octadecenoic acid]
NHAC proliferation (BrdU) [1]: most active

COc1ccc2c(c1)c(CC(=O)O)c(C)n2C(=O)c1ccc(Cl)cc1 [indosim, indomethacin]
aggrecan increase after IL-1 stimulation (aggrecan; IL-1-stimulated (10 ng/mL) explants): completely abolished | increase in aggrecan expression (aggrecan; unstimulated explants): 58 fold | IL-1-mediated iNOS expression (iNOS): augmenting effect | media [GAG] compared with stimulated controls ([2]; IL-1-stimulated explants, p=0.1): elevated compared with stimulated controls over the duration of the experiment, but not significantly | media [GAG] compared with unstimulated controls ([2]; unstimulated explants): significantly higher | IL-1-mediated NO production [3]: increase | cell viability ([4]; IL-1-stimulated explants): no significant effect | cell viability ([4]; unstimulated explants): no significant effect
